System: CD4+ clone 436/B6.34 (B6/34)
Assay: TNF/IFN-γ production by CD4+ clone B6/34 stimulated with peptide-pulsed EBV-B cells
Type: cell-based, human
Procedure: In order to identify the MAGE-A3 peptides recognized by these CD4^+ clones, 16 amino acid peptides, corresponding to parts of the MAGE-A3 protein sequence were synthesized, loaded on the autologous EBV-B cells and tested for recognition (FIGS. 4 and 5). Peptides were synthesized using F-moc for transient NH2-terminal protection and were characterized using mass spectrometry. All peptides were >80% pure as indicated by analytical HPLC. Lyophilized synthetic peptides were dissolved in DMSO (Merck) and used at a final concentration of 500 μM, 50 μM or 5 μg/ml. EBV-B cells (5,000 per round-bottomed microwell) were incubated 2 hours at 37° C., 8% CO2 in the presence of the different peptides, the indicated concentrations representing the peptide concentration during the incubation step. CD4^+ clones were then added at 2,500 cells per well. Assay medium was Iscove's medium supplemented with L-glutamine, L-arginine, L-asparagine, 10% human serum and IL-2 (25 U/ml). After 18-20 hours, supernatants were harvested and assessed for TNF-α and/or IFN-γ secretion. IFN-γ production was measured using an ELISA test (20-4000 pg/ml) developed in the laboratory with reagents from Medgenix Diagnostics-Biosource (Fleurus, Belgium).

FLLLKYRAREPVTKAE (listed as Homo sapiens) [MAGE-A3119-134]
activation of clone B6/34 by 16 amino acid peptides: unable to activate

Source: patent publication US6716809B1, “Mage-A3 peptides presented by HLA class molecules” (priority 1997, dated 2004)
